Publication PMC10794144, “A novel antibiotic class targeting the lipopolysaccharide transporter” (Nature, 2024)
Values after ≈ are worked out from the molar mass of the structure shown.

Tested on: A. baumannii
Test: microbe, parasite or virus in culture
Method: MIC determinations were performed using the broth microdilution method and in line with CLSI guidelines M07 and M100 (refs. [37],[38]). Bacterial inocula were prepared by diluting a 0.5 McFarland suspension in CAMHB or lysogeny broth (LB) specifically for A. baylyi isolates. […] MIC values of all of the tested antibiotics were read as the lowest compound concentration inhibiting bacterial growth by naked eye or beyond which the OD600 ceased to decrease.

CN1C(=O)[C@H](CCCCN)NC(=O)[C@H](CCCN)NCc2cccnc2Sc2c(Cl)ccc(Cl)c2CNC(=O)[C@@H]1Cc1c[nH]c2ccccc12 [RO7075573]
MIC 80% (ROB08701, Study ROC012): 0.12 µg/mL (≈ 0.162 µM) | MIC 100% (ROB08701, Study ROC012): 8 µg/mL (≈ 10.8 µM) | MIC 80% (ROB08702, Study LGC281440): 0.12 µg/mL (≈ 0.162 µM) | MIC 100% (ROB08702, Study LGC281440): >64 µg/mL | MIC 80% (ROB08702, Study LGC282160): 2 µg/mL (≈ 2.7 µM) | MIC 100% (ROB08702, Study LGC282160): >64 µg/mL | MIC 80% (ROB08702, Study LGC284879): 0.12 µg/mL (≈ 0.162 µM) | MIC 100% (ROB08702, Study LGC284879): >64 µg/mL | MIC 80% (ROB08702, Study LGC285582): 0.12 µg/mL (≈ 0.162 µM) | MIC 100% (ROB08702, Study LGC285582): >64 µg/mL | MIC 80% (ROB08702, Study LGC286210): 0.12 µg/mL (≈ 0.162 µM) | MIC 100% (ROB08702, Study LGC286210): >64 µg/mL | MIC 80% (ROB08702, Study LGC293598): 0.12 µg/mL (≈ 0.162 µM) | MIC 100% (ROB08702, Study LGC293598): >64 µg/mL | MIC 80% (ROB08702, Study LGC294355): 0.12 µg/mL (≈ 0.162 µM) | MIC 100% (ROB08702, Study LGC294355): >64 µg/mL | MIC 80% (ROB08702, Study LGC295147): 0.12 µg/mL (≈ 0.162 µM) | MIC 100% (ROB08702, Study LGC295147): 64 µg/mL (≈ 86.5 µM) | MIC 80% (ROB08702, Study LGC296813): 0.12 µg/mL (≈ 0.162 µM) | MIC 100% (ROB08702, Study LGC296813): 64 µg/mL (≈ 86.5 µM) | MIC 80% (ROB08702, Study LGC299544): 0.12 µg/mL (≈ 0.162 µM) | MIC 100% (ROB08702, Study LGC299544): 64 µg/mL (≈ 86.5 µM) | MIC 80% (ROB08702, Study LGC301026): 0.12 µg/mL (≈ 0.162 µM) | MIC 100% (ROB08702, Study LGC301026): 64 µg/mL (≈ 86.5 µM) | MIC 80% (ROB08702, Study LGC308175): 0.12 µg/mL (≈ 0.162 µM) | MIC 100% (ROB08702, Study LGC308175): 64 µg/mL (≈ 86.5 µM) | MIC 80% (ROB08702, Study ROC010): 0.25 µg/mL (≈ 0.338 µM) | MIC 100% (ROB08702, Study ROC010): 32 µg/mL (≈ 43.3 µM) | MIC 80% (ROB08702, Study ROC012): 0.12 µg/mL (≈ 0.162 µM) | MIC 100% (ROB08702, Study ROC012): 64 µg/mL (≈ 86.5 µM) | MIC 80% (ROB08703, Study LGC281440): 0.25 µg/mL (≈ 0.338 µM) | MIC 100% (ROB08703, Study LGC281440): 16 µg/mL (≈ 21.6 µM) | MIC 80% (ROB08703, Study LGC282160): 0.25 µg/mL (≈ 0.338 µM) | MIC 100% (ROB08703, Study LGC282160): 64 µg/mL (≈ 86.5 µM) | MIC 80% (ROB08703, Study LGC284879): 0.5 µg/mL (≈ 0.676 µM) | MIC 100% (ROB08703, Study LGC284879): >64 µg/mL | MIC 80% (ROB08703, Study LGC285582): 0.25 µg/mL (≈ 0.338 µM) | MIC 100% (ROB08703, Study LGC285582): 64 µg/mL (≈ 86.5 µM) | MIC 80% (ROB08703, Study LGC286210): 0.25 µg/mL (≈ 0.338 µM) | MIC 100% (ROB08703, Study LGC286210): 64 µg/mL (≈ 86.5 µM) | MIC 80% (ROB08703, Study LGC293598): 0.12 µg/mL (≈ 0.162 µM) | MIC 100% (ROB08703, Study LGC293598): >64 µg/mL | MIC 80% (ROB08703, Study LGC294355): >64 µg/mL | MIC 100% (ROB08703, Study LGC294355): >64 µg/mL | MIC 80% (ROB08703, Study LGC295147): 0.25 µg/mL (≈ 0.338 µM) | MIC 100% (ROB08703, Study LGC295147): 64 µg/mL (≈ 86.5 µM) | MIC 80% (ROB08703, Study LGC296813): 0.5 µg/mL (≈ 0.676 µM) | MIC 100% (ROB08703, Study LGC296813): 64 µg/mL (≈ 86.5 µM) | MIC 80% (ROB08703, Study LGC299544): 0.5 µg/mL (≈ 0.676 µM) | MIC 100% (ROB08703, Study LGC299544): 64 µg/mL (≈ 86.5 µM) | MIC 80% (ROB08703, Study LGC301026): 0.25 µg/mL (≈ 0.338 µM) | MIC 100% (ROB08703, Study LGC301026): 64 µg/mL (≈ 86.5 µM) | MIC 80% (ROB08703, Study LGC308175): 0.25 µg/mL (≈ 0.338 µM) | MIC 100% (ROB08703, Study LGC308175): 64 µg/mL (≈ 86.5 µM) | MIC 80% (ROB08703, Study ROC010): 0.5 µg/mL (≈ 0.676 µM) | MIC 100% (ROB08703, Study ROC010): 0.5 µg/mL (≈ 0.676 µM) | MIC 80% (ROB08703, Study ROC012): 0.25 µg/mL (≈ 0.338 µM) | MIC 100% (ROB08703, Study ROC012): 64 µg/mL (≈ 86.5 µM) | MIC 80% (ROB08704, Study LGC281440): 0.5 µg/mL (≈ 0.676 µM) | MIC 100% (ROB08704, Study LGC281440): 16 µg/mL (≈ 21.6 µM) | MIC 80% (ROB08704, Study LGC282160): 0.25 µg/mL (≈ 0.338 µM) | MIC 100% (ROB08704, Study LGC282160): 64 µg/mL (≈ 86.5 µM) | MIC 80% (ROB08704, Study LGC284879): 0.5 µg/mL (≈ 0.676 µM) | MIC 100% (ROB08704, Study LGC284879): >64 µg/mL | MIC 80% (ROB08704, Study LGC285582): 0.25 µg/mL (≈ 0.338 µM) | MIC 100% (ROB08704, Study LGC285582): 64 µg/mL (≈ 86.5 µM) | MIC 80% (ROB08704, Study LGC286210): 0.5 µg/mL (≈ 0.676 µM) | MIC 100% (ROB08704, Study LGC286210): 32 µg/mL (≈ 43.3 µM) | MIC 80% (ROB08704, Study LGC293598): 0.5 µg/mL (≈ 0.676 µM) | MIC 100% (ROB08704, Study LGC293598): >64 µg/mL | MIC 80% (ROB08704, Study LGC294355): 0.5 µg/mL (≈ 0.676 µM) | MIC 100% (ROB08704, Study LGC294355): >64 µg/mL | MIC 80% (ROB08704, Study LGC295147): 0.5 µg/mL (≈ 0.676 µM) | MIC 100% (ROB08704, Study LGC295147): 64 µg/mL (≈ 86.5 µM) | MIC 80% (ROB08704, Study LGC296813): 0.5 µg/mL (≈ 0.676 µM) | MIC 100% (ROB08704, Study LGC296813): 32 µg/mL (≈ 43.3 µM) | MIC 80% (ROB08704, Study LGC299544): 0.5 µg/mL (≈ 0.676 µM) | MIC 100% (ROB08704, Study LGC299544): 64 µg/mL (≈ 86.5 µM) | MIC 80% (ROB08704, Study LGC301026): 0.5 µg/mL (≈ 0.676 µM) | MIC 100% (ROB08704, Study LGC301026): 64 µg/mL (≈ 86.5 µM) | MIC 80% (ROB08704, Study LGC308175): 0.25 µg/mL (≈ 0.338 µM) | MIC 100% (ROB08704, Study LGC308175): 32 µg/mL (≈ 43.3 µM) | MIC 80% (ROB08704, Study ROC010): 0.5 µg/mL (≈ 0.676 µM) | MIC 100% (ROB08704, Study ROC010): 1 µg/mL (≈ 1.35 µM) | MIC 80% (ROB08704, Study ROC012): 0.25 µg/mL (≈ 0.338 µM) | MIC 100% (ROB08704, Study ROC012): 32 µg/mL (≈ 43.3 µM) | MIC 80% (ROB08705, Study LGC281440): ≤0.06 µg/mL | MIC 100% (ROB08705, Study LGC281440): ≤0.06 µg/mL | MIC 80% (ROB08705, Study LGC282160): 0.12 µg/mL (≈ 0.162 µM) | MIC 100% (ROB08705, Study LGC282160): 32 µg/mL (≈ 43.3 µM)
